Tests used:
Type in all cases: cell-based
[1] = system: human dermal fibroblasts from Parkinson's disease patients; assay: Rescue of BSO-stressed fibroblasts from Parkinson's disease patients; conditions: Fibroblast, PD fibroblasts AG20439, BSO stress, read-out: protection against PD, EC50
Description: (§1) An initial screen was performed to identify compounds effective for the amelioration of redox disorders. Test samples, 4 reference compounds (Idebenone, decylubiquinone, Trolox and α-tocopherol acetate), and solvent controls were tested for their ability to rescue FRDA fibroblasts stressed by addition of L-buthionine-(S,R)-sulfoximine (BSO), as described in Jauslin et al., Hum. Mol. Genet. 11(24):3055 (2002), Jauslin et al., FASEB J. 17:1972-4 (2003), and International Patent Application WO 2004/003565. […] This specific BSO-mediated cell death can be prevented by administration of antioxidants or molecules involved in the antioxidant pathway, such as α-tocopherol, selenium, or small molecule glutathione peroxidase mimetics. However, antioxidants differ in their potency, i.e. the concentration at which they are able to rescue BSO-stressed FRDA fibroblasts.
(§2) Test samples were screened according to the following protocol: A culture with FRDA fibroblasts was started from a 1 ml vial with approximately 500,000 cells stored in liquid nitrogen. Cells were propagated in 10 cm cell culture dishes by splitting every third day in a ratio of 1:3 until nine plates were available. Once confluent, fibroblasts were harvested. For 54 micro titer plates (96 well-MTP) a total of 14.3 million cells (passage eight) were re-suspended in 480 ml medium, corresponding to 100 μl medium with 3,000 cells/well. The remaining cells were distributed in 10 cm cell culture plates (500,000 cells/plate) for propagation. The plates were incubated overnight at 37° C. in a atmosphere with 95% humidity and 5% CO2 to allow attachment of the cells to the culture plate.
(§3) MTP medium (243 μl) was added to a well of the microtiter plate. The test compounds were unfrozen, and 7.5 μl of a 5 mM stock solution was dissolved in the well containing 243 μl medium, resulting in a 150 μM master solution. Serial dilutions from the master solution were made. The period between the single dilution steps was kept as short as possible (generally less than 1 second).
(§4) Plates were kept overnight in the cell culture incubator. The next day, 10 μl of a 10 mM BSO solution were added to the wells, resulting in a 1 mM final BSO concentration. Forty-eight hours later, three plates were examined under a phase-contrast microscope to verify that the cells in the 0% control (wells E1-H1) were clearly dead. The medium from all plates was discarded, and the remaining liquid was removed by gently tapping the plate inversed onto a paper towel.
(§5) 100 μl of PBS containing 1.2 μM Calcein AM were then added to each well. The plates were incubated for 50-70 minutes at room temperature. After that time the PBS was discarded, the plate gently tapped on a paper towel and fluorescence (excitation/emission wavelengths of 485 nm and 525 nm, respectively) was read on a Gemini fluorescence reader. Data was imported into Microsoft Excel (EXCEL is a registered trademark of Microsoft Corporation for a spreadsheet program) and used to calculate the EC50 concentration for each compound.
(§6) Compounds of the invention were screened as described in Example A, but substituting FRDA cells with Parkinson's Disease (PD) cells obtained from the Coriell Cell Repositories (Camden, N.J.; repository number AG20439). The compounds were tested for their ability to rescue human dermal fibroblasts from Parkinson's disease patients from oxidative stress.

[2] = system: Human dermal fibroblasts from Friedreich's Ataxia patients; assay: Rescue of BSO-stressed FRDA fibroblasts (Calcein AM viability); conditions: FRDA fibroblasts GM04078, BSO stress, read-out: protection against FRDA, EC50
Description: as §1
MEM (a medium enriched in amino acids and vitamins, catalog no. 1-31F24-I) and Medium 199 (M199, catalog no. 1-21F22-I) with Earle's Balanced Salts, without phenol red, were purchased from Bioconcept. Fetal Calf Serum was obtained from PAA Laboratories. Basic fibroblast growth factor and epidermal growth factor were purchased from PeproTech. Penicillin-streptomycin-glutamine mix, L-buthionine (S,R)-sulfoximine, (+)-α-tocopherol acetate, decylubiquinone, and insulin from bovine pancreas were purchased from Sigma. Trolox (6-hydroxy-2,5,7,8-tetramethylchromane-2-carboxylic acid) was obtained from Fluka. Idebenone was obtained from Chemo Iberica. Calcein AM was purchased from Molecular Probes. Cell culture medium was made by combining 125 ml M 199 EBS, 50 ml Fetal Calf Serum, 100 U/ml penicillin, 100 μg/ml streptomycin, 2 mM glutamine, 10 μg/ml insulin, 10 ng/ml EGF, and 10 ng/ml bFGF; MEM EBS was added to make the volume up to 500 ml. A 10 mM BSO solution was prepared by dissolving 444 mg BSO in 200 ml of medium with subsequent filter-sterilization. During the course of the experiments, this solution was stored at +4° C. The cells were obtained from the Coriell Cell Repositories (Camden, N.J.; repository number GM04078) and grown in 10 cm tissue culture plates. Every third day, they were split at a 1:3 ratio.
The test samples were supplied in 1.5 ml glass vials. The compounds were diluted with DMSO, ethanol or PBS to result in a 5 mM stock solution. Once dissolved, they were stored at −20° C. Reference antioxidants (Idebenone, decylubiquinone, α-tocopherol acetate and trolox) were dissolved in DMSO.
as §2, §3
as §4, with “The medium from all plates was discarded, and the remaining liquid was removed by gently tapping the plate inversed onto a paper towel.” left out

[3] = system: human dermal fibroblasts from Huntington's patients; assay: Rescue of BSO-stressed fibroblasts from Huntington's patients; conditions: Fibroblast, Huntington's fibroblasts GM 04281, BSO stress, read-out: protection against Huntington's, EC50
Description: as §1, §2, §3, §4, §5
as §6, with “tested using the screen” for “screened”, “Huntington's” for “Parkinson's Disease (PD)”, “GM 04281).” for “AG20439).”, “Huntington's” for “Parkinson's disease”

[4] = system: human dermal fibroblasts from LHON patients; assay: Rescue of BSO-stressed fibroblasts from LHON patients; conditions: Fibroblast, LHON fibroblasts GM03858, BSO stress, read-out: protection against LHON, EC50
Description: as §1, §2, §3, §4, §5
as §6, with “Leber's Hereditary Optic Neuropathy (LHON)” for “Parkinson's Disease (PD)”, “GM03858).” for “AG20439).”, “LHON” for “Parkinson's disease”

Compound	EC50 [1] [µM]	EC50 [2] [µM]	EC50 [3] [µM]	EC50 [4] [µM]
CC1=C(CCC(C)(C)O)C(=O)C(c2ccc3ccccc3c2)=C(C)C1=O [Example 4, 2-(3-Hydroxy-3-methylbutyl)-3,5-dimethyl-6-(naphthalen-2-yl)cyclohexa-2,5-diene-1,4-dione]	< 0.2	< 0.2	< 0.2	< 0.2
CC1=C(CCC(C)(C)O)C(=O)C(c2ccc(C#N)cc2)=C(C)C1=O [Example 3, 4-(5-(3-Hydroxy-3-methylbutyl)-2,4-dimethyl-3,6-dioxocyclohexa-1,4-dienyl)benzonitrile]	< 0.2	< 0.2		< 0.2
CC1=C(C)C(=O)C(c2ccc(F)c(F)c2)=C(CCC(C)(C)O)C1=O [Example 21, 2-(3,4-Difluorophenyl)-3-(3-hydroxy-3-methylbutyl)-5,6-dimethylcyclohexa-2,5-diene-1,4-dione]		< 0.2	< 0.2	< 0.2
COc1ccc(C2=C(C)C(=O)C(C)=C(CCC(C)(C)O)C2=O)cc1 [Example 2, 2-(3-Hydroxy-3-methylbutyl)-6-(4-methoxyphenyl)-3,5-dimethylcyclohexa-2,5-diene-1,4-dione]	< 0.2	< 0.2	< 0.2	< 0.2
CC1=C(C)C(=O)C(c2cccc(C(F)(F)F)c2)=C(CCC(C)(C)O)C1=O [Example 17, 2-(3-Hydroxy-3-methylbutyl)-5,6-dimethyl-3-(3-(trifluoromethyl)phenyl)cyclohexa-2,5-diene-1,4-dione]	< 0.2	< 0.2	< 0.2	< 0.2
CC1=C(C)C(=O)C(c2ccc(F)cc2)=C(CCC(C)(C)O)C1=O [Example 9, 2-(4-Fluorophenyl)-3-(3-hydroxy-3-methylbutyl)-5,6-dimethylcyclohexa-2,5-diene-1,4-dione]		< 0.2	< 0.2	< 0.2
CC1=C(CCC(C)(C)O)C(=O)C(c2ccc(F)cc2)=C(C)C1=O [Example 6, 2-(4Fluorophenyl)-6-(3-hydroxy-3-methylbutyl)-3,5-dimethylcyclohexa-2,5-diene-1,4-dione]	< 0.2	< 0.2	< 0.2	< 0.2
CC1=C(C)C(=O)C(CCC(C)(C)O)=C(CCCc2ccccc2)C1=O [Example 24, 2-(3-Hydroxy-3-methylbutyl)-5,6-dimethyl-3-(3-phenylpropyl)cyclohexa-2,5-diene-1,4-dione]	< 0.2	< 0.2	< 0.2	< 0.2
CC1=C(C)C(=O)C(CCC(C)(C)O)=C(CCc2ccccc2)C1=O [Example 25, 2-(3-Hydroxy-3-methylbutyl)-5,6-dimethyl-3-phenethylcyclohexa-2,5-diene-1,4-dione]	< 0.2		< 0.2	< 0.2
CC1=C(C)C(=O)C(c2ccc(C#N)cc2)=C(CCC(C)(C)O)C1=O [4-(2-(3-hydroxy-3-methylbutyl)-4,5-dimethyl-3,6-dioxocyclohexa-1,4-dienyl)benzonitrile]			< 0.2	
COc1cc(F)ccc1C1=C(CCC(C)(C)O)C(=O)C(C)=C(C)C1=O [2-(4-fluoro-2-methoxyphenyl)-3-(3-hydroxy-3-methylbutyl)-5,6-dimethylcyclohexa-2,5-diene-1,4-dione]			< 0.2	
CC1=C(C)C(=O)C(c2ccc3ccccc3c2)=C(CCC(C)(C)O)C1=O [Example 13, 2-(3-Hydroxy-3-methylbutyl)-5,6-dimethyl-3-(naphthalen-2-yl)cyclohexa-2,5-diene-1,4-dione]	< 0.2	< 0.2	< 0.2	< 0.2
CC1=C(C)C(=O)C(C(O)Cc2ccccc2)=C(CCC(C)(C)O)C1=O (stereo not shown) [Example 26, 2-(1-Hydroxy-2-phenylethyl)-3-(3-hydroxy-3-methylbutyl)-5,6-dimethylcyclohexa-2,5-diene-1,4-dione]	< 0.2	< 0.2	< 0.2	
CC1=C(C)C(=O)C(c2ccccc2)=C(CCC(C)(C)O)C1=O [Example 10, 2-(3-Hydroxy-3-methylbutyl)-5,6-dimethyl-3-phenylcyclohexa-2,5-diene-1,4-dione]	< 0.2			
CC1=C(C)C(=O)C(c2cc3ccccc3o2)=C(CCC(C)(C)O)C1=O [Example 14, 2-(Benzofuran-2-yl)-3-(3-hydroxy-3-methylbutyl)-5,6-dimethylcyclohexa-2,5-diene-1,4-dione]	< 0.2			< 0.2
CC1=C(C)C(=O)C(c2ccc3c(c2)OCO3)=C(CCC(C)(C)O)C1=O [2-(benzo[d][1,3]dioxol-5-yl)-3-(3-hydroxy-3-methylbutyl)-5,6-dimethylcyclohexa-2,5-diene-1,4-dione]			< 0.2	
CC1=C(C)C(=O)C(Cc2ccccc2)=C(CCC(C)(C)O)C1=O [Example 23, 2-Benzyl-3-(3-hydroxy-3-methylbutyl)-5,6-dimethylcyclohexa-2,5-diene-1,4-dione]		< 0.2	< 0.2	< 0.2
COc1cccc(C2=C(CCC(C)(C)O)C(=O)C(C)=C(C)C2=O)c1 [2-(3-hydroxy-3-methylbutyl)-3-(3-methoxyphenyl)-5,6-dimethyl-cyclohexa-2,5-diene-1,4-dione]			< 0.2	
COc1ccc(C2=C(CCC(C)(C)O)C(=O)C(C)=C(C)C2=O)cc1 [Example 12, 2-(3-Hydroxy-3-methylbutyl)-3-(4-methoxyphenyl)-5,6-dimethylcyclohexa-2,5-diene-1,4-dione]			< 0.2	< 0.2
CC1=C(C)C(=O)C(c2ccccc2F)=C(CCC(C)(C)O)C1=O [Example 22, 2-(2-Fluorophenyl)-3-(3-hydroxy-3-methylbutyl)-5,6-dimethylcyclohexa-2,5-diene-1,4-dione]			< 0.2	
